Holding throughout (assay): DTP human tumour cell line panel, 48 h
Assay [1] deals with MOLT-4 leukemia.
For assay [2], the system named is ACHN renal.
The test system of assay [3] is 786-0 renal.
Assay [4] deals with HCC-2998 colon.
In assay [5] the test system is A549 NSCLC.
Assay [6] deals with NCI-H226 lung.
Assay [7] relates to A498 renal.
Assay [8] deals with HCT-116 colon.
For assay [9], the system named is SF-268 CNS.
Assay [10] relates to SK-MEL-2 melanoma.
The subject of assay [11] is SK-MEL-5 melanoma.
Assay [12] relates to KM12 colon.
The test system of assay [13] is OVCAR-4 ovarian.
The test system of assay [14] is HCT-15 colon.
Assay [15] concerns SNB-75 CNS.
In assay [16] the test system is UO-31 renal.
Assay [17] relates to NCI-H23 lung.

Results on 16 compounds are retold here after PubChem BioAssay (NCI).

As usually defined, the TGI is the concentration at which net growth stops. The low end stands for greater sensitivity of the cells, the high end for lower sensitivity of the cells.

Molecules are shown by their SMILES.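 Interpolation was linear, between the two tested concentrations surrounding the appropriate level; five concentrations were tested over 48 hours in 96-well plates. TGI denotes the concentration required for complete inhibition of growth.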 Bounds are passed on as bounds.

In the case of `COc1cc(/C=C2\C[C@H]3[C@@H]4CC=C5C[C@@H](O)CC[C@]5(C)[C@H]4CC[C@]3(C)[C@H]2O)cc(OC)c1OC`, the concentration for total growth inhibition (TGI) in assay [1] was 91.4 µM; in assay [2], greater than 100 µM; in assay [3] it was 27.1 µM; in assay [4], greater than 100 µM; in assay [5], greater than 100 µM; in assay [6], greater than 100 µM. Moreover, the total growth inhibition concentration (TGI) was 80.6 µM in assay [7]; 24.4 µM in assay [8]; greater than 100 µM in assay [9]; 32.5 µM in assay [10]; 21.5 µM in [11]; 39.4 µM in assay [12]. Further, the TGI in [13] was 46.2 µM; in assay [14], greater than 100 µM; in assay [15] it was 75.4 µM; in [16] it was 36.8 µM; in [17], 58.2 µM.

With `Cc1ccc2c(c1)C(=O)/C(=C\c1ccccc1)CCS2(=O)=O`, the TGI in assay [1] was 87.5 µM; in assay [2], 24.2 µM; in [3] it was 25.2 µM; in assay [4], 28.6 µM; in assay [5], greater than 87.8 µM; in [6], greater than 49.9 µM. Moreover, the TGI in [7] is 52.1 µM; in assay [8], 18.7 µM; in assay [9] it was greater than 68.7 µM; in assay [10] it was 89.8 µM; in assay [11], 29.4 µM; in assay [12], 28.2 µM. Besides, the total growth inhibition concentration (TGI) was 46.5 µM in assay [13]; 19.7 µM in assay [14]; greater than 58 µM in assay [15]; 26.7 µM in assay [16]; 40.7 µM in assay [17].

Take `COc1ccc(N2C(=O)C3c4[nH]c5ccccc5c4C4CCCCCCCCCCC4C3C2=O)cc1` (configuration not stated): the total growth inhibition concentration (TGI) is 37.4 µM in assay [1]; greater than 60.3 µM in [2]; 8.17 µM in [3]; greater than 100 µM in assay [4]; 23.2 µM in assay [5]; 17.7 µM in [6]. Moreover, the TGI is 25.5 µM in assay [7]; 15.6 µM in assay [8]; greater than 30.5 µM in [9]; greater than 100 µM in assay [10]; greater than 59.6 µM in assay [11]; greater than 57.3 µM in assay [12]. For the same compound, the total growth inhibition concentration (TGI) was 65.8 µM in assay [13]; 19.9 µM in assay [14]; 55 µM in [15]; greater than 59.8 µM in assay [16]; greater than 33.1 µM in [17].

For the compound `O=C1CCCCC/C1=C\c1ccc(F)cc1`, the TGI in [1], in assay [2], in assay [3], in [4], in assay [5] and in assay [6] was greater than 100 µM each time. The concentration for total growth inhibition (TGI) in [7], in [8], in assay [9], in [10], in assay [11] and in assay [12] was greater than 100 µM throughout. Moreover, the TGI in [13], in assay [14], in [15], in assay [16] and in [17] was greater than 100 µM throughout.

`COC(OC)C1OC(CO)C(n2cc(C)c(=O)[nH]c2=O)C1O` (configuration not stated): the concentration for total growth inhibition (TGI) in assay [1], in assay [2], in assay [3], in [4], in assay [5] and in assay [6] was greater than 100 µM in each case. Moreover, the concentration for total growth inhibition (TGI) in [7], in [8], in assay [9], in [10], in assay [11] and in assay [12] was greater than 100 µM throughout. Also, the TGI in assay [13], in [14], in [15], in [16] and in [17] was greater than 100 µM throughout.

On to `COc1ccc(N2C(=O)C3c4[nH]c5ccc(OC)cc5c4C4CCC(C(C)(C)C)CC4C3C2=O)cc1` (configuration not stated), for which the TGI is greater than 100 µM in [1]; greater than 100 µM in assay [2]; 66.1 µM in assay [3]; greater than 100 µM in assay [4]; greater than 100 µM in assay [5]; greater than 100 µM in assay [6]. In addition, the total growth inhibition concentration (TGI) in assay [7] is 49.3 µM; in assay [8], 26.1 µM; in assay [9], greater than 100 µM; in [10] it was 70.4 µM; in assay [11], greater than 100 µM; in [12] it was greater than 100 µM. Also, the TGI in [13] is 43.6 µM; in assay [14], greater than 100 µM; in assay [15], 35.6 µM; in assay [16], greater than 100 µM; in assay [17] it was 80.8 µM.

With `COC1=C2CC(C)CC(OC)[C@@H](OC(=O)CCN)[C@H](C)/C=C(\C)C(OC(N)=O)C(OC)/C=C\C=C(/C)C(=O)NC(=CC1=O)C2=O` (some centres not stated), the TGI in [1] was 2.53 µM; in assay [2], 16 µM; in assay [3], 14.2 µM; in [4], 5.69 µM; in assay [5] it was 29.2 µM; in assay [6], 40.6 µM. Further, the TGI was found to be 31.2 µM in assay [7]; 12.3 µM in assay [8]; 26.2 µM in assay [9]; 22.7 µM in assay [10]; 15.2 µM in [11]; 8.36 µM in [12]. The concentration for total growth inhibition (TGI) turned out to be 12.6 µM in assay [13]; 13.8 µM in assay [14]; 35.1 µM in assay [15]; 16.3 µM in [16]; 6.22 µM in assay [17].

With `CC(C)/C(Cl)=N\OC(=O)Nc1cccc(F)c1`, the TGI in [1] was 6.29 µM; in assay [2] it was 27.8 µM; in [3], 29.6 µM; in assay [4], 36.9 µM; in assay [5] it was 34.9 µM; in [6], 33.5 µM. Also, the concentration for total growth inhibition (TGI) was 17.9 µM in [7]; 30.6 µM in [8]; 58 µM in [9]; 18.9 µM in assay [10]; 28.4 µM in [11]; 16.7 µM in assay [12]. The total growth inhibition concentration (TGI) in assay [13] was determined as 25.4 µM; in [14], 30.6 µM; in assay [15], 55.6 µM; in [16], 32.6 µM; in assay [17] it was 34.2 µM.

As to `C=CC(Cl)(CBr)CCC(Br)=C(C)C` (configuration not stated), the total growth inhibition concentration (TGI) in assay [1] was greater than 100 µM; in assay [2] it was 49.7 µM; in assay [3], 67.6 µM; in assay [4], 44.5 µM; in assay [5], greater than 100 µM; in assay [6], greater than 100 µM. Also, the TGI in assay [7] was greater than 100 µM; in assay [8], 63 µM; in assay [9] it was 43.3 µM; in [10] it was 36.8 µM; in [11] it was 33.7 µM; in assay [12], 40.7 µM. Further, the total growth inhibition concentration (TGI) was found to be 46.6 µM in assay [13]; 35.9 µM in assay [14]; 91.4 µM in assay [15]; 37.4 µM in [16]; 68.5 µM in assay [17].

Regarding `CC(C)(C)OC(=O)N(O)[C@@H]1C=C[C@H](n2cnc3c(N)ncnc32)C1`, the total growth inhibition concentration (TGI) in [1] was greater than 100 µM; in assay [2] it was greater than 100 µM; in [3], greater than 100 µM; in [4] it was greater than 100 µM; in assay [5], greater than 100 µM; in assay [6] it was 96.9 µM. The total growth inhibition concentration (TGI) in [7], in assay [8], in assay [9], in [10], in [11] and in assay [12] was greater than 100 µM throughout. Further, the TGI in [13], in assay [14], in assay [15], in assay [16] and in assay [17] was greater than 100 µM each time.

For `C=C1C(=O)O[C@@H]2[C@H]1C[C@@H](O)[C@H](C)[C@@](O)(C(=O)/C=C/C)[C@H]2OC(=O)C(C)CC` (some centres not stated), the TGI was greater than 36.9 µM in assay [1]; 9.89 µM in assay [2]; 6.91 µM in [3]; greater than 67.4 µM in assay [4]; 33 µM in [5]; greater than 100 µM in assay [6]. The TGI in assay [7] was 37.7 µM; in [8], 3.58 µM; in assay [9], greater than 54 µM; in assay [10], 84.1 µM; in [11] it was 21.3 µM; in assay [12] it was 33.1 µM. Besides, the TGI in assay [13] came out at 22.8 µM; in [14], 7.97 µM; in [15], 51.6 µM; in assay [16], 4.06 µM; in [17] it was 18.2 µM.

In the case of `O=c1cc(-c2ccccc2)[nH]c2cc(F)c(F)cc12`, the concentration for total growth inhibition (TGI) in assay [1] was greater than 100 µM; in assay [2] it was greater than 35.5 µM; in assay [3], 4.18 µM; in [4], greater than 30.9 µM; in assay [5], greater than 31.5 µM; in assay [6] it was greater than 26.4 µM. Further, the TGI is greater than 62.8 µM in assay [7]; greater than 100 µM in assay [8]; greater than 20.8 µM in assay [9]; greater than 75.1 µM in [10]; 18.7 µM in assay [11]; greater than 100 µM in assay [12]. Moreover, the TGI was greater than 100 µM in assay [13]; greater than 100 µM in assay [14]; 90 µM in assay [15]; greater than 100 µM in assay [16]; 22.9 µM in assay [17].

In the case of `CC(=N/NC(=S)N1CCCCC1)/C(=N\NC(=S)N1CCCCC1)c1ccccc1`, the TGI in assay [1] was greater than 100 µM; in [2], 3.01 µM; in [3] it was 3.69 µM; in assay [4], 4.48 µM; in assay [5] it was 4.5 µM; in [6], 3.47 µM. For the same compound, the TGI stood at 2.65 µM in assay [7]; 5.83 µM in assay [8]; 3.37 µM in assay [9]; 4.62 µM in [10]; 3.57 µM in [11]; 3.99 µM in assay [12]. The TGI in assay [13] amounted to 3.61 µM; in assay [14], 4.56 µM; in [15] it was 3.59 µM; in [16] it was 4.03 µM; in [17], 5.16 µM.

Consider `CCN1CCC(O)(c2ccc(C)cc2)C(C(=O)c2ccc(C)cc2)C1` (configuration not stated), for which the total growth inhibition concentration (TGI) in assay [1] is greater than 71.5 µM; in assay [2], 32.1 µM; in assay [3], 26.6 µM; in assay [4], greater than 100 µM; in assay [5], greater than 100 µM; in assay [6] it was greater than 100 µM. The TGI was greater than 100 µM in assay [7]; 30.3 µM in assay [8]; greater than 71.8 µM in [9]; greater than 100 µM in assay [10]; greater than 57.2 µM in [11]; greater than 91.9 µM in assay [12]. Further, the TGI in [13] is 50.1 µM; in assay [14], 36.5 µM; in assay [15] it was greater than 100 µM; in assay [16] it was greater than 57.5 µM; in assay [17], greater than 55.1 µM.

Consider `CC(C)=CCC[C@@H](C)C1=C(O)C(Nc2ccccc2Br)=C(C)C(=O)C1=O`, for which the TGI was 25.5 µM in assay [1]; greater than 60.2 µM in [2]; 51.2 µM in assay [3]; greater than 69.9 µM in [4]; 44.6 µM in assay [5]; 34.2 µM in assay [6]. Moreover, the concentration for total growth inhibition (TGI) in assay [7] is 45.2 µM; in assay [8], 43.6 µM; in assay [9], greater than 50.4 µM; in [10], 41.9 µM; in [11], 16.1 µM; in assay [12], 32.1 µM. In addition, the TGI in assay [13] is greater than 100 µM; in assay [14], 22.9 µM; in assay [15], 66.2 µM; in assay [16], 35.7 µM; in assay [17], 31.2 µM.

`CC1Cc2c(Br)nc(N)nc2NC1=O` (configuration not stated): the concentration for total growth inhibition (TGI) in assay [1], in assay [2], in [3], in assay [4], in assay [5] and in assay [6] was greater than 100 µM each time. In addition, the TGI in [7], in assay [8], in assay [9], in assay [10], in [11] and in [12] was greater than 100 µM each time. Besides, the total growth inhibition concentration (TGI) in assay [13], in assay [14], in assay [15], in [16] and in assay [17] was greater than 100 µM in each case.
